Results: the NIST ThermoML archive (doi:10.1016/j.jct.2015.08.022)
Numbers after ± are expanded uncertainties.

Columns and labels:
[1] = Crystal; DTA
[2] = Molar enthalpy of transition or fusion; conditions: Crystal; DSC

| Normal melting temperature [1] [°C] | Molar enthalpy of transition or fusion [2] [kcal/mol] | Compound |
| --- | --- | --- |
| 170.4 ± 0.4 | 7.43 ± 0.191 | NNC(=O)c1ccncc1 [isonicotinic acid hydrazide] |
| 189.4 ± 0.4 | 6.48 ± 0.167 | NC(=O)c1cnccn1 [pyrazinecarboxamide] |
| 185.6 ± 0.4 | 5.98 ± 0.167 | Nc1ccc(C(=O)O)cc1 [4-aminobenzoic acid] |
